Source: ChEMBL document CHEMBL3880402, “Inhibitors of E1 activating enzymes” (2006)

Target: T1, NEDD8-activating enzyme E1 catalytic subunit (Homo sapiens, UniProt Q8TBC4)
T1 sequence (Q8TBC4 whole entry): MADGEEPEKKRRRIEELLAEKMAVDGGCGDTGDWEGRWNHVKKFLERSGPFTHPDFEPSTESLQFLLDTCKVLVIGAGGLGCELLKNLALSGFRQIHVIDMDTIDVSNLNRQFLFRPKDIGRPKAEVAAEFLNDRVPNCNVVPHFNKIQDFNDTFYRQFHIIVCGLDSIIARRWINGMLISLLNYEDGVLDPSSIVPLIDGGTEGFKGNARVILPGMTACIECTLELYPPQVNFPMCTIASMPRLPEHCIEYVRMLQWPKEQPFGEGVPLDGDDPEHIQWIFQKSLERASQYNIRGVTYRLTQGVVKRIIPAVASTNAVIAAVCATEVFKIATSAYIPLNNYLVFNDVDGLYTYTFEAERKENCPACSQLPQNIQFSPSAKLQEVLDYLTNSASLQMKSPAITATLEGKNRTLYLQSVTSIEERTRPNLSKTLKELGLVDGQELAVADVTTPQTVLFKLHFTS
Test: Inhibition of recombinant human untagged NAEalpha/N-terminal His-tagged NAEbeta expressed in Bac-to-Bac expression system using FLAG-tagged NEDD8 as substrate after 90 mins in presence of GST-tagged Ubc12 by HTRF assay

Row | IC50 [nM] | SMILES
1 | 100 to 1000 | NS(=O)(=O)NC[C@H]1O[C@@H](n2cnc3c(NCC(c4ccccc4)c4ccccc4)ncnc32)[C@H](O)[C@@H]1O
2 | 100 to 1000 | NS(=O)(=O)OC[C@H]1O[C@@H](n2cnc3c(NCCN4CCOCC4)ncnc32)[C@H](O)[C@@H]1O
3 | 100 to 1000 | CCc1ncnc2c1ncn2[C@@H]1O[C@H](COS(N)(=O)=O)[C@@H](O)[C@H]1O
4 | 100 to 1000 | NS(=O)(=O)OC[C@H]1O[C@@H](n2cnc3c(C#Cc4ccc(Br)cc4)ncnc32)[C@H](O)[C@@H]1O
5 | 100 to 1000 | COc1cccc(CNc2ncnc3c2ncn3[C@@H]2O[C@H](CNS(N)(=O)=O)[C@@H](O)[C@H]2O)c1
6 | ≤ 1000 | NS(=O)(=O)NC[C@H]1O[C@@H](n2cnc3c(NCc4csc5ccccc45)ncnc32)[C@H](O)[C@@H]1O
7 | 100 to 1000 | NS(=O)(=O)OC[C@H]1O[C@@H](n2cnc3c(NC(=O)Nc4ccccc4)ncnc32)[C@H](O)[C@@H]1O
8 | 100 to 1000 | NS(=O)(=O)NC[C@H]1O[C@@H](n2cnc3c(NCc4ccccc4)ncnc32)[C@H](O)[C@@H]1O
9 | 100 to 1000 | CN(c1ncnc2c1ncn2[C@@H]1O[C@H](COS(N)(=O)=O)[C@@H](O)[C@H]1O)[C@H]1CCc2ccccc21
10 | 100 to 1000 | NS(=O)(=O)OC[C@H]1O[C@@H](n2cnc3c(NCc4cccc5ccccc45)ncnc32)[C@H](O)[C@@H]1O
11 | 100 to 1000 | NS(=O)(=O)OC[C@H]1O[C@@H](n2cnc3c(CCc4ccccc4)ncnc32)[C@H](O)[C@@H]1O
12 | 100 to 1000 | CC(=O)NCc1ccccc1CNc1ncnc2c1ncn2[C@@H]1O[C@H](COS(N)(=O)=O)[C@@H](O)[C@H]1O
13 | 100 to 1000 | NS(=O)(=O)OC[C@H]1O[C@@H](n2cnc3c(NCc4ccc(OC(F)(F)F)cc4)ncnc32)[C@H](O)[C@@H]1O

Row | SMILES | IC50 [nM]
14 | NS(=O)(=O)OC[C@H]1O[C@@H](n2cnc3c(N[C@H]4CCc5ccccc54)nncc32)[C@H](O)[C@@H]1O | 100 to 1000
